Patent US9351971B2, “Substituted 2,2′-biphenazines for treating diseases” (Eutropics Pharmaceuticals, Inc., priority 2010, dated 2016)

Experiments:
[1] = test system: SUDHL-10 cell line; assay: Cell viability MTS assay, SUDHL-10 (Bax/Bak deficient); type: cell-based, human
Procedure: (§1) The lymphoid derived cell lines DHL-6 and DHL-10 were obtained from Anthony Letai of the Dana Father Cancer Research Institute, Boston, Mass. The […] derived cell line NCP-H929 was obtained irons, the NIH/NCI cell repository. AML-3 cells were obtained from Dr. Michael Andreef (MD Anderson Cancer Center, Houston, Tex.). Cells were grown in RPMI 1640 medium (GIBCO-BRL) supplemented with Pen-strep-glutamine (Gibco 10378) and 5% fetal bovine serum.
(§2) Cells were expanded in tissue culture in appropriate media and then subcultured into 96-well plates at a seeding density of 20,000-40,000 cells per well, and cells were treated with one or more compounds that were titrated info appropriate medium with FCS. Cell lines were treated with compound A at concentrations ranging from 25 μM to 25 nM. The BH3-mimetic obatoclax (Nguyen M et al. (2007), Proc. Natl. Acad. Sci. USA 104:19512-19517) was also tested against the SUDHL-6, SUDHL-10, and NCI-H929 cell lines. Cells were treated for 48 hours and scored for viability using the MTS assay (Promega). Growth inhibition was indicated as a percentage of control cell growth. Growth was determined by measuring the A570 (control cells)—A570 (treated cells)/A570 (control cells). EC50 values were calculated using Graphpad Prizm software.

[2] = Pharmacokinetics of compound II-19 i.p. in male ICR mice; type: in vivo, mouse; conditions: 10 mg/kg
Procedure: FIG. 11 is a graph of the pharmacokinetics of compound II-19 clearance in mouse plasma. Pharmacokinetic profile of Compound II-19 in. male ICR mice is shown. Compound II-19 was dissolved in 5% DMSO, 15% hydroxypropyl-beta-cyclodexmain, and 50 mM Tris in water to yield a nominal concentration of 5 mg/mL. This solution was administered intraperintoncally to […] male ICR mice at a dose of 10 mg/kg. Three mice in each group were used for blood, collection, at each of 8 time points: 5 minutes, 0.25 hrs, 0.5 hrs, 1 hr, 2 hrs, 4 hrs, 8 hrs, and 24 hrs postdose. Plasma samples at these time points were analyzed for the quantity of compound II-19 by standard liquid chromatography/mass spectroscopy methods.
Pharmacokinetic studies were conducted on compound II-19 to assess plasma clearance and distribution in male ICR mice. Compounds were administered i.p. (as in the xenograft study, Example 8) at 10 mg/kg. Blood samples were collected at various time points (pre-injection, 5 min, 15 min, 30 min, 1 h, 2 h, 4 h, 8 h and 24 h), and centrifuged to remove red blood cells. […] Plasma levels of drug were quantified by LC-MS (C18 column elided with linear gradient from 0% acetonitrile, 1% formic acid to 100% acetonitrile, 1% formic acid) against a set of standards prepared by diluting a known quantity of II-19 into mouse plasma.

[3] = test system: AML-3 acute myelogenous leukemia cell line; assay: Cell viability MTS assay, AML-3; type: cell-based; conditions: Homo sapiens, AML3, 48 hours, read-out: EC50, cell killing in AML-3
Procedure: as §1, §2

[4] = test system: NCI H929 tumors; assay: NCI H929 human myeloma xenograft model in mice; type: in vivo, mouse; conditions: vehicle 2300 mm^3
Procedure: Cell Culture: Tumor cell line NCI H929 was cultured according to ATCC recommendations in […] containing 10% fetal bovine serum and pen-strep. On the day of implantation, cells were washed 1× with phosphate buffered saline (PBS) and harvested via centrifugation. Cells were pelleted (5 min at 1000 rpm, RT) then resuspended in serum-free matrigel and kept on ice until implantation.
Tumor Cell Implantation: The cell line was implanted via subcutaneous injection on the right rear flank at a volume of 200 μl containing 3×10^7 cells per mouse; the injection site was cleaned using alcohol before and after injection to prevent any infection.
Tumor Assessment: Beginning 1 week post cell implantation all animals were weighed and tagged and tumors were measured and body weights taken 3 times weekly (length×width×height) on Monday, Wednesday, and Friday for the duration of study. Once an average tumor volume of 100-200 mm^3 was reached, animals were randomized and placed into 4 treatment groups of a minimum of 10 mice per group based on tumor size. Randomization was determined by tumor volume (length×width×height)[…] for all of the mice and average volume was calculated using a average function in Excel (Microsoft Professional).
Treatment: The study involved 4 groups of 10 animals per group. Animals in all dose groups were weighed on days of tumor measurement. All doses were administered i.p. at 10 mL/kg. The Bortezormib (1 mg/kg) group was once every 3 days for 15 days. The mice receiving vehicle and compound II-19 were dosed every second day. Compound II-19 was formulated in 1% DMSO, 10 mM Tris pH 8, 30% hydroxypropyl-beta-cyclodextrin; this vehicle was used as the “vehicle” control. Bortezomib was formulated in 30% propylene glycol, 5% Tween 80, 3.3% dextrose in water, pH 4, 1% DMSO.

time for which circulating drug levels can be sustained [2]: > 24 h | half-life ([2]; mouse, plasma, ip): > 20 h
Structure (SMILES): COC(=O)c1ccc(O)c2nc3c(C=O)c(O)c(-c4c(O)c(C=O)c5nc6c(O)ccc(C(=O)OC)c6nc5c4O)c(O)c3nc12 [II-19, dimethyl 4,4′-diformyl-1,1′,3,3′,6,6′-hexahydroxy-[2,2′-biphenazine]-9,9′-dicarboxylate]
EC50 ([1]; Homo sapiens, SU-DHL10, 48 hours, MTS assay, Bax/Bak deficient cell line, read-out: EC50, cell killing in SUDHL-10): > 20 µM | activity against the Bax/Bak deficient cell line SUDHL-10 (in words) ([1]; cell killing, FIG. 4d): absence of activity | EC50 [3]: 10 µM | average tumor size at the end of the study ([4]; 1 mg/kg i.p. every second day): 1740 mm^3 | average tumor size at the end of the study ([4]; 3 mg/kg i.p. every second day): 1600 mm^3
